{"source": "the supplement of paper PMC4862054", "details_in_all_cases": "incubation time: 72 h", "key": {"CAL-148": {"test_system": "CAL-148", "assay": "drug sensitivity score (DSS), CellTiter-Glo (DSS (AUC-based score)); higher = stronger drug effect (viability inhibition or cytotoxicity); extreme values may be limits of the assay", "summary_of_the_method": "(§1)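 Using 20 µl of cell suspension per well, breast cancer cell lines were seeded into 384-well plates pre-loaded with compound at 5 concentrations in 10-fold steps across a compound-specific 10,000-fold range. Incubation lasted 72 h, after which CellTox Green fluorescence at 485/520 nm and then CellTiter-Glo luminescence, following 10 min at room temperature, were recorded. Each plate was normalised to 0.1 % DMSO and a positive kill control before the drug sensitivity score was derived from the area under the fitted dose-response curve.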"}, "CAL-85-1 [1]": {"test_system": "CAL-85-1", "assay": "drug sensitivity score (DSS), CellTiter-Glo (DSS (AUC-based score)); higher = stronger drug effect (viability inhibition or cytotoxicity); extreme values may be limits of the assay", "summary_of_the_method": "as §1"}, "MDA-MB-231": {"test_system": "MDA-MB-231", "assay": "drug sensitivity score (DSS), CellTiter-Glo (DSS (AUC-based score)); higher = stronger drug effect (viability inhibition or cytotoxicity); extreme values may be limits of the assay", "summary_of_the_method": "as §1"}, "DU-4475": {"test_system": "DU-4475", "assay": "drug sensitivity score (DSS), CellTiter-Glo (DSS (AUC-based score)); higher = stronger drug effect (viability inhibition or cytotoxicity); extreme values may be limits of the assay", "summary_of_the_method": "as §1"}, "CAL-120": {"test_system": "CAL-120", "assay": "drug sensitivity score (DSS), CellTiter-Glo (DSS (AUC-based score)); higher = stronger drug effect (viability inhibition or cytotoxicity); extreme values may be limits of the assay", "summary_of_the_method": "as §1"}, "HCC1599 [2]": {"test_system": "HCC1599", "assay": "drug sensitivity score (DSS), CellTiter-Glo (DSS (AUC-based score)); higher = stronger drug effect (viability inhibition or cytotoxicity); extreme values may be limits of the assay", "summary_of_the_method": "as §1"}, "MDA-MB-436 [3]": {"test_system": "MDA-MB-436", "assay": "drug sensitivity score (DSS), CellTiter-Glo (DSS (AUC-based score)); higher = stronger drug effect (viability inhibition or cytotoxicity); extreme values may be limits of the assay", "summary_of_the_method": "as §1"}, "HCC1937 [4]": {"test_system": "HCC1937", "assay": "drug sensitivity score (DSS), CellTiter-Glo (DSS (AUC-based score)); higher = stronger drug effect (viability inhibition or cytotoxicity); extreme values may be limits of the assay", "summary_of_the_method": "as §1"}, "SK-BR-3 [5]": {"test_system": "SK-BR-3", "assay": "drug sensitivity score (DSS), CellTiter-Glo (DSS (AUC-based score)); higher = stronger drug effect (viability inhibition or cytotoxicity); extreme values may be limits of the assay", "summary_of_the_method": "as §1"}, "Hs578T": {"test_system": "Hs578T", "assay": "drug sensitivity score (DSS), CellTiter-Glo (DSS (AUC-based score)); higher = stronger drug effect (viability inhibition or cytotoxicity); extreme values may be limits of the assay", "summary_of_the_method": "as §1"}, "MFM-223": {"test_system": "MFM-223", "assay": "drug sensitivity score (DSS), CellTiter-Glo (DSS (AUC-based score)); higher = stronger drug effect (viability inhibition or cytotoxicity); extreme values may be limits of the assay", "summary_of_the_method": "as §1"}, "MDA-MB-453": {"test_system": "MDA-MB-453", "assay": "drug sensitivity score (DSS), CellTiter-Glo (DSS (AUC-based score)); higher = stronger drug effect (viability inhibition or cytotoxicity); extreme values may be limits of the assay", "summary_of_the_method": "as §1"}, "BT-549": {"test_system": "BT-549", "assay": "drug sensitivity score (DSS), CellTiter-Glo (DSS (AUC-based score)); higher = stronger drug effect (viability inhibition or cytotoxicity); extreme values may be limits of the assay", "summary_of_the_method": "as §1"}, "BT-474 [6]": {"test_system": "BT-474", "assay": "drug sensitivity score (DSS), CellTiter-Glo (DSS (AUC-based score)); higher = stronger drug effect (viability inhibition or cytotoxicity); extreme values may be limits of the assay", "summary_of_the_method": "as §1"}, "HDQ-P1 [7]": {"test_system": "HDQ-P1", "assay": "drug sensitivity score (DSS), CellTiter-Glo (DSS (AUC-based score)); higher = stronger drug effect (viability inhibition or cytotoxicity); extreme values may be limits of the assay", "summary_of_the_method": "as §1"}, "CAL-51 [8]": {"test_system": "CAL-51", "assay": "drug sensitivity score (DSS), CellTiter-Glo (DSS (AUC-based score)); higher = stronger drug effect (viability inhibition or cytotoxicity); extreme values may be limits of the assay", "summary_of_the_method": "as §1"}, "CAL-85-1 [9]": {"test_system": "CAL-85-1", "assay": "normalised viability (% of control), CellTiter-Blue; higher = more viable cells (about 100 = DMSO control)", "summary_of_the_method": "(§2)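 After 72 h on compound-loaded 384-well plates, breast cancer cell lines received 2.5 µl CellTiter-Blue reagent for 2 h at 37 °C. Fluorescence at 560/590 nm was scaled per plate so that vehicle was 100 and a positive kill control was 0. The value stands for normalised viability at a single listed concentration of the series.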"}, "HCC1599 [10]": {"test_system": "HCC1599", "assay": "normalised viability (% of control), CellTiter-Blue; higher = more viable cells (about 100 = DMSO control)", "summary_of_the_method": "as §2"}, "MDA-MB-436 [11]": {"test_system": "MDA-MB-436", "assay": "normalised viability (% of control), CellTiter-Blue; higher = more viable cells (about 100 = DMSO control)", "summary_of_the_method": "as §2"}, "HCC1937 [12]": {"test_system": "HCC1937", "assay": "normalised viability (% of control), CellTiter-Blue; higher = more viable cells (about 100 = DMSO control)", "summary_of_the_method": "as §2"}, "SK-BR-3 [13]": {"test_system": "SK-BR-3", "assay": "normalised viability (% of control), CellTiter-Blue; higher = more viable cells (about 100 = DMSO control)", "summary_of_the_method": "as §2"}, "HCC1143": {"test_system": "HCC1143", "assay": "normalised viability (% of control), CellTiter-Blue; higher = more viable cells (about 100 = DMSO control)", "summary_of_the_method": "as §2"}, "BT-474 [14]": {"test_system": "BT-474", "assay": "normalised viability (% of control), CellTiter-Blue; higher = more viable cells (about 100 = DMSO control)", "summary_of_the_method": "as §2"}, "HDQ-P1 [15]": {"test_system": "HDQ-P1", "assay": "normalised viability (% of control), CellTiter-Blue; higher = more viable cells (about 100 = DMSO control)", "summary_of_the_method": "as §2"}, "CAL-51 [16]": {"test_system": "CAL-51", "assay": "normalised viability (% of control), CellTiter-Blue; higher = more viable cells (about 100 = DMSO control)", "summary_of_the_method": "as §2"}}}
{"smiles": "CC(O)(CS(=O)(=O)c1ccc(F)cc1)C(=O)Nc1ccc(C#N)c(C(F)(F)F)c1", "note": "(stereo not drawn) [Bicalutamide]", "values": [{"measurement": "drug sensitivity score", "setting": "CAL-148", "value": 0}, {"measurement": "drug sensitivity score", "setting": "CAL-85-1 [1]", "value": 0}, {"measurement": "drug sensitivity score", "setting": "MDA-MB-231", "value": 0}, {"measurement": "drug sensitivity score", "setting": "DU-4475", "value": 0}, {"measurement": "drug sensitivity score", "setting": "CAL-120", "value": 0}, {"measurement": "drug sensitivity score", "setting": "HCC1599 [2]", "value": 0}, {"measurement": "drug sensitivity score", "setting": "MDA-MB-436 [3]", "value": 0}, {"measurement": "drug sensitivity score", "setting": "HCC1937 [4]", "value": 0}, {"measurement": "drug sensitivity score", "setting": "SK-BR-3 [5]", "value": 0}, {"measurement": "drug sensitivity score", "setting": "Hs578T", "value": 0}, {"measurement": "drug sensitivity score", "setting": "MFM-223", "value": 0}, {"measurement": "drug sensitivity score", "setting": "MDA-MB-453", "value": 0.186}, {"measurement": "drug sensitivity score", "setting": "BT-549", "value": 0}, {"measurement": "drug sensitivity score", "setting": "BT-474 [6]", "value": 0}, {"measurement": "drug sensitivity score", "setting": "HDQ-P1 [7]", "value": 0}, {"measurement": "drug sensitivity score", "setting": "CAL-51 [8]", "value": 0}, {"measurement": "normalised viability", "setting": "CAL-85-1 [9]; 3 nM", "value": 93.7, "unit": "%"}, {"measurement": "normalised viability", "setting": "CAL-85-1 [9]; 30 nM", "value": 97.3, "unit": "%"}, {"measurement": "normalised viability", "setting": "CAL-85-1 [9]; 100 nM", "value": 104, "unit": "%"}, {"measurement": "normalised viability", "setting": "HCC1599 [10]; 10 nM", "value": 98.3, "unit": "%"}, {"measurement": "normalised viability", "setting": "HCC1599 [10]; 1000 nM", "value": 93.6, "unit": "%"}, {"measurement": "normalised viability", "setting": "HCC1599 [10]; 10000 nM", "value": 109, "unit": "%"}, {"measurement": "normalised viability", "setting": "MDA-MB-436 [11]; 10 nM", "value": 90, "unit": "%"}, {"measurement": "normalised viability", "setting": "MDA-MB-436 [11]; 1000 nM", "value": 96.2, "unit": "%"}, {"measurement": "normalised viability", "setting": "MDA-MB-436 [11]; 10000 nM", "value": 96.7, "unit": "%"}, {"measurement": "normalised viability", "setting": "HCC1937 [12]; 10 nM", "value": 101, "unit": "%"}, {"measurement": "normalised viability", "setting": "HCC1937 [12]; 1000 nM", "value": 107, "unit": "%"}, {"measurement": "normalised viability", "setting": "HCC1937 [12]; 10000 nM", "value": 78.5, "unit": "%"}, {"measurement": "normalised viability", "setting": "SK-BR-3 [13]; 10 nM", "value": 104, "unit": "%"}, {"measurement": "normalised viability", "setting": "SK-BR-3 [13]; 1000 nM", "value": 107, "unit": "%"}, {"measurement": "normalised viability", "setting": "SK-BR-3 [13]; 10000 nM", "value": 114, "unit": "%"}, {"measurement": "normalised viability", "setting": "HCC1143; 10 nM", "value": 94.8, "unit": "%"}, {"measurement": "normalised viability", "setting": "HCC1143; 1000 nM", "value": 105, "unit": "%"}, {"measurement": "normalised viability", "setting": "HCC1143; 10000 nM", "value": 92.7, "unit": "%"}, {"measurement": "normalised viability", "setting": "BT-474 [14]; 10 nM", "value": 119, "unit": "%"}, {"measurement": "normalised viability", "setting": "BT-474 [14]; 1000 nM", "value": 109, "unit": "%"}, {"measurement": "normalised viability", "setting": "BT-474 [14]; 10000 nM", "value": 138, "unit": "%"}, {"measurement": "normalised viability", "setting": "HDQ-P1 [15]; 3 nM", "value": 86.9, "unit": "%"}, {"measurement": "normalised viability", "setting": "HDQ-P1 [15]; 30 nM", "value": 110, "unit": "%"}, {"measurement": "normalised viability", "setting": "HDQ-P1 [15]; 100 nM", "value": 118, "unit": "%"}, {"measurement": "normalised viability", "setting": "CAL-51 [16]; 3 nM", "value": 116, "unit": "%"}, {"measurement": "normalised viability", "setting": "CAL-51 [16]; 30 nM", "value": 109, "unit": "%"}, {"measurement": "normalised viability", "setting": "CAL-51 [16]; 100 nM", "value": 99.1, "unit": "%"}]}
